Literature values in US10369185B2, “Methods and compositions for enhancement of ability to concentrate” (KYOWA HAKKO BIO CO., LTD., priority 2014, dated 2019).

Details: alanylglutamine compared to glutamine; cited from earlier work

NC(=O)CC[C@H](N)C(=O)O [glutamine, reference compound]
solubility in aqueous solutions: low-solubility
